According to ChEMBL document CHEMBL1158049, “Bisindole alkaloids from myxomycetes Arcyria denudata and Arcyria obvelata” (J Nat Prod, 2006):
In brackets after ≈: the same amount, converted by molar mass.

Tested on: Jurkat
Experiment: Cytotoxicity against human Jurkat cells after 42 hrs by alamar blue assay
Format: functional, cell-based

Compound | IC50
O=C1NC(=O)C(c2c[nH]c3cc(OS(=O)(=O)O)ccc23)=C1c1c[nH]c2ccccc12 | > 25 µg/mL
O=C1NC(=O)C(c2c[nH]c3cc(O)ccc23)=C1c1c[nH]c2ccccc12 [ARCYRIARUBIN B] | 10 µg/mL (≈ 29.1 µM)
O=C1NC(=O)C2=C1c1c([nH]c3cc(O)ccc13)Oc1cccc3[nH]cc2c13 [ARCYROXOCIN B] | 7 µg/mL (≈ 19.6 µM)
O=C1NC(=O)[C@H]2c3c[nH]c4cccc(c34)-c3[nH]c4ccccc4c3[C@@H]12 [DIHYDROARCYRIACYANIN A] | 7 µg/mL (≈ 21.4 µM)
